We go through 1 compound from PMC3828334, “Tumor Cell Death Mediated by Peptides That Recognize Branched Intermediates of DNA Replication and Repair” (PLoS ONE, 2013).

Data set [1] deals with PC3 cells. As to the kind of experiment: Cell cycle analysis (PI, flow cytometry). It counts as cell-based. Conditions: PC3, 200 µM, 48 h or 72 h, 2 independent experiments; DMSO 14%. The method, then:
600,000 PC3 cells were plated in 60-mm dishes at a concentration of 200,000 cells/ml and allowed to attach before they were serum-starved for 48 h by adding RPMI with no supplemented FBS. The cells were then treated in 100, 150 or 200 µM wrwycr in RPMI supplemented with 10% FBS for either 48 h or 72 h followed by permeabilization with cold 70% ethanol overnight. RNase/PI solution (BD Pharmingen) were added to the cells following the protocol in [33] and incubated for 2.5 h at 37°C and analyzed using the PerCP-Cy5-5 channel in a FACS Canto flow cytometer. The results were analyzed using Flow-Jo software.

Data set [2] has as its system Htog1 cells (variant of HeLa cells). As to the kind of experiment: Cytochrome C release / TMRE assay for apoptosis. The format is cell-based. The conditions noted are these: 24 h, confocal microscopy. The method, then: 200,000 Htog1 cells (variant of HeLa cells, a generous gift from Drs. Terrence Frey and Maria Guo) were seeded on cover slips mounted on 35 mm microwell petri dishes (Mattek Corp, Ashland, MA) with DMEM supplemented with 10% FBS and allowed to attach overnight at 37°C in 5% CO2. The media was replaced with 1 ml of the appropriate treatment and incubated for 24 h. After 23 h of treatment, 50 µM tetramethyl rhodamine ethyl ester perchlorate (TMRE) solution was added to each well (final concentration 50 nM) and incubated for the remaining hour. Cytochrome C release and loss of TMRE staining were determined in Z-series images acquired using a Leica TCS SP2 inverted confocal microscope. GFP was excited using 488 nm wavelength from an Ar/Kr laser attenuated to 33%, and the emitted fluorescence detected at 497–553 nm. TMRE fluorescence was excited using a 543 nm wavelength from an Ar/Kr laser attenuated to 35%, and the emitted fluorescence detected at 555–620 nm. Each cell was analyzed for release of GFP (GFP channel), loss of mitochondrial membrane potential (TMRE loss) or morphological abnormalities associated with apoptosis, and the % cells positive for each hallmark was calculated for the various treatments.

Data set [3] deals with U2OS cell lines vs IMR 90 cells. Conditions: cited from earlier work. The text has this:
A major challenge of cancer treatment is drug delivery. The intact cell membrane protects the cellular components from its surroundings, restricting hydrophilic molecules from entering the cell and allowing only small molecules to cross the membrane. The presence of hydrophobic and basic amino acid residues in peptide wrwycr probably helps it cross the cancer cell membrane more efficiently than normal cells, similar to the cell penetrating peptides (CPPs).

The next data set relates to Chk2 in PC3 cells. Briefly: Phospho-Chk2 by flow cytometry. The format is cell-based. Conditions: PC3, 50 µM wrwycr on its own, 48 h. As to the method: They were subsequently treated with either 50-200 μM […] or 50-100 μM […] or 0.5-1 μM doxorubicin or combination treatment for 0, 12, 24, 36 and 48 h. […] Samples were analyzed using a Becton Dickinson FACS Canto flow cytometer at a forward scatter voltage of 25 V, side-scatter voltage of 400 V, and FITC channel at a voltage of 400 V.

Data set [4] deals with PC3 cells. Briefly: Live/Dead assay by flow cytometry, PC3. The format is cell-based. The conditions noted are these: ± standard error, at least 4 replicates. The method, then:
PC3 or HeLa cells were seeded at 400,000 or 500,000 cells per well respectively in 6-well tissue culture plates (BD Falcon) and allowed to attach overnight at 37°C with 5% CO2. The cells were incubated with different concentrations of d-wrwycr for 24 or 48 h respectively before the cells were lifted off from the plate. Cell pellets were resuspended in 200 µl of dye […] protocol (Live/dead cytotoxicity kit for mammalian cells, Invitrogen and reference). Data were collected in BDFacs Canto and analyzed using FACSDiva software (Becton-Dickenson).

The test system of data set [5] is GRP78 promoter in HeLa cells. As to the kind of experiment: Luciferase reporter assay for ER stress. It counts as cell-based. The conditions noted are these: 24 h. As to the method: HeLa cells were transfected with either either 15 µg of plasmid DJT208, carrying the GRP78 promoter (pGRP78) driving the ER-stress response elements ERSE 1, ERSE 2 and ERSE 3 upstream of the luciferase gene, or 15 µg of the plasmid GL2P, carrying the luciferase gene driven by the SV40 promoter (pSV40). All cells were also co-transfected with 10 µg of the PB1 plasmid, carrying the β-galactosidase reporter transcribed by the SV40 promoter, as a transfection control. [The plasmids were generous gifts from Dr. Peter Belmont from Christopher Glembotski's Lab in SDSU]. After 24 h the cells were treated with increasing concentrations of wrwycr (100, 150 and 200 µM) for 24 h and the luciferase activity was measured using an OptocompII Luminometer. Tunicamycin (TM), a known inducer of ER stress, was used as a positive control for the experiment ER stress was calculated as the fold increase of luciferase gene expression from the GRP78 promoter over that from the SV40 promoter of pGL2P for the different concentrations of the peptide over DMSO, which is the solvent for the peptide, or over the media in the case of TM.

Each structure is given as a SMILES string. “And” between values parts separate entries of the source, which are not always exact repeats. Equal entries are not always repeated. Positions of bridges follow the written chain, without caps; N, C: chain ends. Non-standard residues stand in square brackets, D forms with d. Residues, ends and D or L forms follow the SMILES beside them. Chains are numbered I, II in the order given.

`N=C(N)NCCC[C@@H](NC(=O)[C@@H](CSSC[C@@H](NC(=O)[C@@H](Cc1ccc(O)cc1)NC(=O)[C@@H](Cc1c[nH]c2ccccc12)NC(=O)[C@@H](CCCNC(=N)N)NC(=O)[C@H](N)Cc1c[nH]c2ccccc12)C(=O)N[C@H](CCCNC(=N)N)C(N)=O)NC(=O)[C@@H](Cc1ccc(O)cc1)NC(=O)[C@@H](Cc1c[nH]c2ccccc12)NC(=O)[C@@H](CCCNC(=N)N)NC(=O)[C@H](N)Cc1c[nH]c2ccccc12)C(N)=O` [wrwycr, Trp-Arg-Trp-Tyr-Cys-Arg] (I: H-[dW][dR][dW][dY][dC][dR]-NH2 / II: H-[dW][dR][dW][dY][dC][dR]-NH2; disulfide I:5-II:5; N-terminus assumed): in the data set on PC3 cells [1], the “percentage of the S phase cellular population” value turned out to be 50%. The “cytochrome C release or loss of TMRE” value in data set [2] is recorded as “little or no cytochrome C release or loss of TMRE”. Moreover, the “uptake in U2OS cell lines relative to non-tumor derived IMR 90 cells” value in data set [3] is 3 ×. Besides, the “cells with activated Chk2” value in the data set on Chk2 in PC3 cells is “About 5%”. Moreover, the “PC3 population %Live” value with PC3 cells [4] (100 µM wrwycr, calcein AM) was 64.9±2.5%; in the data set with PC3 cells [4] (150 µM wrwycr), 64.4±0.9%; in the data set on PC3 cells [4] (200 µM wrwycr), 58% and 57.7±4.7%. In addition, the “PC3 population % Dead” value with PC3 cells [4] (100 µM wrwycr, propidium iodide permeable) is 33.4±2.0%; with PC3 cells [4] (150 µM wrwycr), 33.8±0.6%; in the data set on PC3 cells [4] (200 µM wrwycr), 40.6±4.8%. Besides, the pGRP78/pSV40 was determined as 0.84±0.1 in data set [5] (100 µM, ER stress as fold increase GRP78 promoter over SV40 promoter); 1.02±0.44 in data set [5] (150 µM); 0.87±0.06 in data set [5] (200 µM). Further, the “induction of expression of the GRP78 promoter” value in data set [5] (100–200 µM) is listed as “did not induce expression of the GRP78 promoter”.
